The values that follow come from US12227494B2, “Polymorphisms of HM30181 mesylate” (ATHENEX R&D, LLC, priority 2020, dated 2025).

Series [1] in a line: XRPD of polymorphs after air-drying or vacuum-drying (solid form stability). It counts as physicochemical. On the procedure:
Large scale studies were performed with HM30181 mesylate Type A starting material on a 200 mg scale as described below. Solids were isolated by vacuum filtration. The wet cakes from filtration from DMA, DMF, and NMP slurries were washed with 1 mL to 2 mL methanol to remove solvents. […]
XRPD was performed using a Panalytical X'Pert3™ Powder XRPD and on a Si zero-background holder. The 2θ position was calibrated against a Panalytical™ 640 Si powder standard. Details of XRPD used in the experiments are listed below in Table 20.

Series [2] is described as follows: 1H-NMR check for disproportionation or degradation. Type of series: physicochemical. To be noted: slurry in DMF at 150° C., 5 days. The source says:
At large scale, a slurry of HM30181 mesylate Type A starting material in methanol at ambient conditions generated a mixture of HM30181 mesylate Type B and HM30181 mesylate Type A after 9 days (see FIG. 32). After 14 days, the slurry in methanol generated a HM30181 mesylate Type N polymorph. […] A scaled-up slurry of HM30181 mesylate Type A starting material in DMA yielded HM30181 mesylate Type E after 6 days (see FIG. 35). […] A scaled-up slurry of HM30181 mesylate Type A starting material in DMF at 50° C. yielded HM30181 mesylate Type F rather than the expected HM30181 mesylate Type G after 9 days (see FIG. 36). […] This slurry was heated in an attempt to generate HM30181 mesylate Type G. A scaled-up slurry of HM30181 mesylate Type A starting material in DMF at 100° C. yielded HM30181 mesylate Type F after 2 days (see FIG. 37). A scaled-up slurry of HM30181 mesylate Type A starting material in DMF at 150° C. yielded a previously unobserved XRPD pattern after 5 days (see FIG. 37).
By 1H-NMR, HM30181 mesylate Type E contained DMA, HM30181 mesylate Type F contains DMF, and HM30181 mesylate Type N contains MeOH.
Proton NMR were obtained using a Varian 200M™ NMR in deuterated DMSO (DMSO-d6).

As for `COc1cc2c(cc1OC)CN(CCc1ccc(-n3nnc(-c4cc(OC)c(OC)cc4NC(=O)c4cc(=O)c5ccccc5o4)n3)cc1)CC2.CS(=O)(=O)O` [HM30181 mesylate Type A, HM30181 mesylate], the “XRPD (air-dry)” value in series [1] (air-dried solids from Crash cooling 50° C.-->−20° C., ACN 10 mL, Exp. 6007235-17-C12) was “Type C”; in series [1] (air-dried solids from Slow Cooling 50° C.-->4° C., ACN 10 mL, Exp. 6007235-17-C4), “Type C”; in series [1] (air-dried solids from Slow Cooling 50° C.-->4° C., DCM 10 mL, Exp. 6007235-17-C5), “Type C”. In addition, in series [2], the “Chemical stability in DMF slurry by 1H-NMR” value is reported as “resulted in degradation”.
